In patent publication US20050187288A1, “Beta-lapachone and methods of treating cancer” (priority 2004, published 2005):
Where two headings read alike, the source gives them in different places.

Tests used:
human PBMC = test: MTT cytotoxicity on PBMC; assay type: cell-based; conditions: 0.5, 2, 4, and 8 μM for 24 h
Description: Proliferating PBMC were generated by 72 h incubation with phytohemagglutinin (PHA) at 2 μg/mL.

SK-MEL-28 = conditions: human, 4 h
Description: (§1) Control plates received the same volume of DMSO alone. After a 4 hour exposure the drug was carefully removed, and drug-free medium could be added. […] Colonies of greater than 50 cells were scored as survivors. Cells were maintained at 37° C. in 5% CO2 in complete humidity.

[1] = Study 5B: four week intravenous toxicity study in rats; conditions: for creatine kinase elevation: Day 1
Description: Blood samples were taken for hematology and clinical chemistry (Days 1, 15 and 24) and coagulation (Day 24 only) and clinical chemistry evaluation.

[2] = Pharmacokinetic data from toxicology study in dogs, one-hour intravenous infusion; assay type: in vivo; conditions: both sexes, dog
Description: In this study, two dogs (one male, one female) were administered β-lapachone intravenously in the HPBCD formulation over one hour. The animals received escalating doses of 5, 15, 30 and 45 mg/kg, with three to four days between doses. The mean response of the two dogs is shown at each dose level. […] Doses up to and including 30 mg/kg produced no toxicity.

[3] = system: PaCa-2 pancreatic cancer cells; test: cells; conditions: Homo sapiens
[4] = Study 4B: cardiovascular, pulmonary study in anesthetized dogs; assay type: in vivo
Description: In Study No. 4B, adult female Beagle dogs (one male in control group) were randomized into three study groups (3 animals/group) as shown in Table 17.
For measurement of cardiovascular function, a lead II ECG was obtained with subdermal needle electrodes and an ECG signal conditioner. Heart rate (HR) was measured with a pulse rate tachometer. The right femoral artery was cannulated with a catheter connected to a pressure transducer and pressure processor for recording mean, systolic and diastolic arterial blood pressure (BP). The left femoral artery was exposed by a flank incision and a probe (2.5 mm i.d.) connected to an electromagnetic flowmeter was placed around the artery for measurement of blood flow (BF). […] For measurement of pulmonary function, a 5.0 mm endotracheal tube connected to a pneumotachograph recorded integrated flow to yield a continuous recording of respiratory rate (RR). Intrapleural pressure was obtained from an esophageal balloon placed in the lower third of the esophagus. Transpulmonary pressure, the difference between thoracic (i.e. the external end of the endotracheal tube) and pleural pressure, was measured with a differential pressure transducer. Measurements of respiratory flow and transpulmonary pressure were used to compute total lung resistance (RL) and dynamic compliance (CDYN).
All parameters were measured and recorded immediately before (0 minute) and 5, 10, 30, 60, 90 and 120 minutes after start of the infusion. The mean±SEM value and the percentage relative to pretreatment values at each observation time point after dosing were calculated, and Dunnett's test was applied for comparison between vehicle control group and test substance treated group at the relative observation time interval. Differences were considered significant at p<0.05 level.

MCF-7 = test: cells; conditions: Homo sapiens, MCF7, read-out: LC50 (Replicate Results), MCF-7, 4 hour exposure, colonies after 14-21 days
Description: as §1

[5] = system: human breast cancer cells (MCF-7); test: Colony formation assay, cancer vs normal breast cells; assay type: cell-based; conditions: MCF-7, 4 h treatment
Excerpt: After 10-20 days, cells were fixed and stained with modified Wright-Giemsa stain.

human plasma proteins = test: Binding to human plasma proteins by equilibrium dialysis; assay type: in vitro ADME; conditions: 2-25 μM, 37° C.
Description: The plasma aliquots were incubated at 37° C. for 1 h, and then were dialyzed against PBS buffer at 37° C. for 4 h using Dianorm Equilibrium Dialysers.

[6] = Study 6B: two week intravenous repetitive dose toxicity study in rats; conditions: 45 mg/kg, one animal, Day 15
E2F1 = E2F1 induction; assay type: cell-based, human; design: key: “+” symbol represents overexpression of E2F1 relative to a control
[7] = system: DU145 human prostate cancer; test: Human prostate cancer xenograft model; assay type: in vivo, mice
Description: Tumors were measured throughout treatment and the post-treatment observation period. […] Tumor nodules were measured during the treatment period (Days 21-43) and at the end of observation (Day 56). Dose-related inhibition of tumor growth is seen, with little tumor growth following completion of treatment. […] Tumor nodules were measured pre-treatment (“Pre-Tx”), at the end of the 30-day treatment period (“Post-Tx”) and at the conclusion of the post treatment observation period 14 days following termination of treatment (“Post-Exp't”).

SK-OV-3 = test: cells; conditions: Homo sapiens, SK-OV-3, read-out: LC50 (Replicate Results), SK-OV-3, 4 hour exposure, colonies after 14-21 days
Description: as §1

60 cancer cell lines = test: NCI in vitro screen of 60 cancer cell lines, sulforhodamine B assay; assay type: cell-based; conditions: Homo sapiens, 60 cell, read-out: LC50 (log10 molar concentration causing 50% lethality), mean across all cells (converted)
Description: The NCI screen includes cell lines isolated from leukemia, non-small cell lung cancer (NSCLC), colon, […] (CNS), melanoma, ovarian, renal, prostate and breast cancer tissues.
The NCI assays were performed under standardized conditions and use the sulforhodamine B assay as the endpoint. The NCI set of 60 lines included nine colon cancer cell lines (COLO 205, DLD-1, HCC-2998, HCT-116, HCT-15, HT29, KM12, KM20L2, and SW-620).
The NCI assays were performed under standardized conditions and use the sulforhodamine B assay as the endpoint. The NCI set of 60 lines included twelve non-small cell lung cancer cell lines (A549, EKVX, HOP-18, HOP-19, HOP-62, HOP-92, NCI-H226, NCI-H23, NCI-H322M, NCI-H460, NCI-H522, and LXFL 529), and three small cell lung cancer cell lines (DMS 114, DMS 273, AND SHP-77).

[8] = 40 mg/kg, by the end of the infusion

Q: With CC1(C)CCC2=C(O1)c1ccccc1C(=O)C2=O [β-lapachone, 3,4-dihydro-2,2-dimethyl-2H-naphtho [1,2-b]pyran-5,6-dione] as the compound, how does the “cytotoxicity to fresh or proliferating PBMC growth” value (human PBMC) read?
A: No cytotoxicity

Q: What about the CC50 (SK-MEL-28) of the same compound?
A: 2.63 µM

Q: What about the “mortality and clinical signs” value ([1]; 30 mg/kg dose group) of the same compound?
A: No mortality or clinical signs of toxicity

Q: What about the creatine kinase elevation ([1]; 30 mg/kg) of the same compound?
A: 2 fold upper limit of normal

Q: What about the creatine kinase elevation ([1]; 45 mg/kg) of the same compound?
A: 4 fold upper limit of normal

Q: And the reticulocyte count ([1]; high dose group (45 mg/kg), Day 15, controls 2.1%)?
A: 4.1%

Q: And the AUC ([2]; in vivo, 5 mg/kg)?
A: 13600 ng·h/mL

Q: What about the half-life ([2]; plasma, intravenous, across the dose range, read-out: terminal half-life (converted)) of the same compound?
A: ~16 h

Q: And the Cmax ([2]; plasma, iv, 5 mg/kg, 60 min infusion)?
A: 750 ng/mL

Q: And the AUC ([2]; plasma, iv, 5 mg/kg, 60 min infusion, mean of two dogs, read-out: AUC)?
A: 13600 ng·h/mL

Q: What about the half-life ([2]; plasma, iv, 5 mg/kg, 60 min infusion, read-out: T1/2) of the same compound?
A: ~16 h

Q: What about the Cmax ([2]; plasma, iv, 15 mg/kg, 60 min infusion) of the same compound?
A: 1150 ng/mL

Q: What about the AUC ([2]; plasma, iv, 15 mg/kg, 60 min infusion, mean of two dogs, read-out: AUC) of the same compound?
A: 20200 ng·h/mL

Q: And the half-life ([2]; plasma, iv, 15 mg/kg, 60 min infusion, read-out: T1/2)?
A: ~16 h

Q: And the Cmax ([2]; plasma, iv, 30 mg/kg, 60 min infusion)?
A: 1480 ng/mL

Q: And the AUC ([2]; plasma, iv, 30 mg/kg, 60 min infusion, mean of two dogs, read-out: AUC)?
A: 26000 ng·h/mL

Q: What about the half-life ([2]; plasma, iv, 30 mg/kg, 60 min infusion, read-out: T1/2) of the same compound?
A: ~16 h

Q: And the CC50 ([3]; PaCa-2, read-out: LC50, PaCa-2 Clone A surviving >LC99)?
A: 2.59 µM

Q: And the CC50 ([3]; PaCa-2, read-out: LC50, PaCa-2 Clone B surviving >LC99)?
A: 2.72 µM

Q: What about the CC50 ([3]; PaCa-2, read-out: LC50, PaCa-2 WT) of the same compound?
A: 2.69 µM

Q: What about the “reduction of tidal volume” value ([4]; 20 mg/kg, at 60 minutes) of the same compound?
A: 16%

Q: And the dynamic compliance ([4]; 40 mg/kg)?
A: approximately 52 % of normal

Q: What about the “increase of pulmonary resistance” value ([4]; 40 mg/kg) of the same compound?
A: approximately 50%

Q: What about the “decrease in tidal volume” value [4, 8] of the same compound?
A: 41%

Q: And the respiratory rate [4, 8]?
A: four-fold increase

Q: What about the “effects on cardiovascular function (BP, blood flow, heart rate, ECG incl. QTc)” value ([4]; up to and including 40 mg/kg over 1 hour) of the same compound?
A: no significant effects on cardiovascular function

Q: And the CC50 (MCF-7)?
A: 1.45 µM

Q: And the “concentrations giving essentially complete elimination of colonies” value [5]?
A: ≥ 24 µM

Q: What about the “amount of free compound in human plasma” value (human plasma proteins) of the same compound?
A: approximately 7%

Q: And the total bilirubin ([6]; ULN 0.27)?
A: 0.46 mg/dL

Q: And the blood urea nitrogen ([6]; ULN 19)?
A: 40 mg/dL

Q: What about the creatinine phosphokinase ([6]; ULN 513) of the same compound?
A: 553 IU/L

Q: What about the “E2F1 Induction” value (E2F1; Colon HT-29) of the same compound?
A: +

Q: And the “E2F1 Induction” value (E2F1; Colon SW480)?
A: +

Q: What about the “E2F1 Induction” value (E2F1; Pancreas PANC1) of the same compound?
A: +

Q: What about the tumor growth ([7]; 100 mg/kg in Lipiodol IP q3d, 30-day treatment) of the same compound?
A: greater suppression of tumor growth

Q: And the tumor growth ([7]; 25 and 50 mg/kg in Lipiodol IP q3d)?
A: inhibited tumor growth in a dose-dependent manner

Q: What about the CC50 (SK-OV-3) of the same compound?
A: 1.18 µM

Q: What about the CC50 (60 cancer cell lines) of the same compound?
A: 8.51 µM
